Laboratory results: US20240228504A1, “SUBSTITUTED TRICYCLIC AMIDES, ANALOGUES THEREOF, AND METHODS USING SAME” (Arbutus Biopharma Corporation, priority 2020, published 2024)
Like-named read-outs stand apart in the source and are kept apart here.

Tested on: HBV rcDNA in HepDE19 cells
Experiment: HepDE19 assay with bDNA quantitation of HBV rcDNA
Type: cell-based, hepatitis B virus
Conditions: inhibition of rcDNA formation, bDNA quantitation, read-out: DE-19bDNA EC50
[1] = Hepatitis B virus, HepDE19, HepDE19 assay

Row | SMILES | EC50 (HepDE19 assay) [nM] | EC50 [1] [nM]
1 | CC(=O)N1Cc2[nH]c(=O)c3cc(F)ccc3c2C(N(C)C(=O)c2cc3ccccc3[nH]2)C1 (single isomer, unassigned) [Compound 68, N-(3-Acetyl-8-fluoro-6-oxo-1,2,3,4,5,6-hexahydrobenzo[c][1,7]naphthyridin-1-yl)-N-methyl-1H-indole-2-carboxamide] | 5500 | 
2 | CN(C(=O)c1cc2cc(F)c(F)cc2[nH]1)[C@@H]1COCc2c1c1cc(F)c(F)cc1c(=O)n2CCO [Compound 315, (S)-N-(8,9-Difluoro-5-(2-hydroxyethyl)-6-oxo-1,4,5,6-tetrahydro-2H-pyrano[3,4-c]isoquinolin-1-yl)-5,6-difluoro-N-methyl-1H-indole-2-carboxamide] |  | 30
3 | CN(C(=O)c1cc2c(F)c(F)ccc2[nH]1)C1COCc2[nH]c(=O)c3cc(F)ccc3c21 (single isomer, unassigned) [Compound 38, 4,5-Difluoro-N-(8-fluoro-6-oxo-1,4,5,6-tetrahydro-2H-pyrano[3,4-c]isoquinolin-1-yl)-N-methyl-1H-indole-2-carboxamide] | 10 | 
4 | CN(C(=O)[C@H](O)c1cccc(Cl)c1)[C@@H]1COCc2[nH]c(=O)c3cc(F)c(F)cc3c21 [Compound 138, (R)-2-(3-Chlorophenyl)-N-((S)-8,9-difluoro-6-oxo-1,4,5,6-tetrahydro-2H-pyrano[3,4-c]isoquinolin-1-yl)-2-hydroxy-N-methylacetamide] |  | 1200
5 | CN(C(=O)c1cc2ccccc2[nH]1)C1CCCc2[nH]c(=O)c3cc(F)ccc3c21 (single isomer, unassigned) [Compound 475, N-(8-Fluoro-6-oxo-1,2,3,4,5,6-hexahydrophenanthridin-1-yl)-N-methyl-1H-indole-2-carboxamide] | 1800 | 
6 | CN(C(=O)c1cc2cc(F)c(F)cc2[nH]1)[C@@H]1COCc2nc(OCCN)c3cc(F)c(F)cc3c21 [Compound 280, (S)-N-(6-(2-aminoethoxy)-8,9-difluoro-1,4-dihydro-2H-pyrano[3,4-c]isoquinolin-1-yl)-5,6-difluoro-N-methyl-1H-indole-2-carboxamide] |  | 20
7 | CN(C(=O)c1ccc2cn[nH]c2c1)C1COCc2[nH]c(=O)c3cc(F)ccc3c21 (single isomer, unassigned) [Compound 469, N-(8-fluoro-6-oxo-1,4,5,6-tetrahydro-2H-pyrano[3,4-c]isoquinolin-1-yl)-N-methyl-1H-indazole-6-carboxamide] |  | 2200
8 | CN(C(=O)c1cnc(C(F)(F)F)c(Br)c1)[C@@H]1COCc2[nH]c(=O)c3cc(F)c(F)cc3c21 [Compound 365, (S)-5-Bromo-N-(8,9-difluoro-6-oxo-1,4,5,6-tetrahydro-2H-pyrano[3,4-c]isoquinolin-1-yl)-N-methyl-6-(trifluoromethyl)nicotinamide] |  | 60
9 | CN(C(=O)[C@](C)(O)c1ccccc1)[C@@H]1COCc2[nH]c(=O)c3cc(F)c(F)cc3c21 [Compound 94, (R)-N-((S)-8,9-Difluoro-6-oxo-1,4,5,6-tetrahydro-2H-pyrano[3,4-c]isoquinolin-1-yl)-2-hydroxy-N-methyl-2-phenylpropanamide] |  | 3200
10 | CN(C(=O)c1cc2nc(F)ccc2[nH]1)[C@@H]1COCc2[nH]c(=O)c3cc(F)c(F)cc3c21 [Compound 232, (S)-N-(8,9-Difluoro-6-oxo-1,4,5,6-tetrahydro-2H-pyrano[3,4-c]isoquinolin-1-yl)-5-fluoro-N-methyl-1H-pyrrolo[3,2-b]pyridine-2-carboxamide] |  | 70
11 | CN(C(=O)c1cc2c(Cl)cc(F)cc2[nH]1)C1COCc2[nH]c(=O)c3cc(F)ccc3c21 (single isomer, unassigned) [Compound 439, 4-Chloro-6-fluoro-N-(8-fluoro-6-oxo-1,4,5,6-tetrahydro-2H-pyrano[3,4-c]isoquinolin-1-yl)-N-methyl-1H-indole-2-carboxamide] | 20 | 
12 | Cc1cc(F)cc2[nH]c(C(=O)N(C)[C@@H]3COCc4[nH]c(=O)c5cc(F)c(F)cc5c43)cc12 [Compound 344, (S)-N-(8,9-Difluoro-6-oxo-1,4,5,6-tetrahydro-2H-pyrano[3,4-c]isoquinolin-1-yl)-6-fluoro-N,4-dimethyl-1H-indole-2-carboxamide] |  | 10
13 | CC(=O)N1Cc2[nH]c(=O)c3cc(F)c(F)cc3c2C(N(C)C(=O)c2cc3ccccc3[nH]2)C1 (single isomer, unassigned) [Compound 82, N-(3-Acetyl-8,9-difluoro-6-oxo-1,2,3,4,5,6-hexahydrobenzo[c][1,7]naphthyridin-1-yl)-N-methyl-1H-indole-2-carboxamide] | 3500 | 
14 | CN(C(=O)c1cc2ccccc2[nH]1)C1CN(CCO)Cc2[nH]c(=O)c3cc(F)ccc3c21 (single isomer, unassigned) [Compound 79, N-(8-Fluoro-3-(2-hydroxyethyl)-6-oxo-1,2,3,4,5,6-hexahydrobenzo[c][1,7]naphthyridin-1-yl)-N-methyl-1H-indole-2-carboxamide] |  | 10000
15 | CN(C(=O)c1cc2cc(Br)cnc2[nH]1)[C@@H]1COCc2[nH]c(=O)c3cc(F)c(F)cc3c21 [Compound 192, (S)-5-Bromo-N-(8,9-difluoro-6-oxo-1,4,5,6-tetrahydro-2H-pyrano[3,4-c]isoquinolin-1-yl)-N-methyl-1H-pyrrolo[2,3-b]pyridine-2-carboxamide] |  | 260
16 | CN(C(=O)c1cc2c(F)cc(F)cc2[nH]1)C1CNCc2[nH]c(=O)c3cc(F)c(F)cc3c21 (single isomer, unassigned) [Compound 117, N-(8,9-Difluoro-6-oxo-1,2,3,4,5,6-hexahydrobenzo[c][1,7]naphthyridin-1-yl)-4,6-difluoro-N-methyl-1H-indole-2-carboxamide] | 20 | 
17 | CN1Cc2[nH]c(=O)c3cc(F)ccc3c2C(N(C)C(=O)c2cc3ccccc3[nH]2)C1 (single isomer, unassigned) [Compound 60, N-(8-Fluoro-3-methyl-6-oxo-1,2,3,4,5,6-hexahydrobenzo[c][1,7]naphthyridin-1-yl)-N-methyl-1H-indole-2-carboxamide] | 5900 | 
18 | CN(C(=O)c1ccc2cccnc2c1)[C@@H]1COCc2[nH]c(=O)c3cc(F)c(F)cc3c21 [Compound 66, (S)-N-(8,9-Difluoro-6-oxo-1,4,5,6-tetrahydro-2H-pyrano[3,4-c]isoquinolin-1-yl)-N-methylquinoline-7-carboxamide] |  | 2300
19 | CN(C(=O)c1cc(F)c(C(F)F)c(F)c1)[C@@H]1COCc2[nH]c(=O)c3cc(F)c(F)cc3c21 [Compound 180, (S)-N-(8,9-Difluoro-6-oxo-1,4,5,6-tetrahydro-2H-pyrano[3,4-c]isoquinolin-1-yl)-4-(difluoromethyl)-3,5-difluoro-N-methylbenzamide] |  | 160
20 | CN(C(=O)c1cc2cc(F)ncc2[nH]1)[C@@H]1COCc2[nH]c(=O)c3cc(F)c(F)cc3c21 [Compound 310, (S)-N-(8,9-Difluoro-6-oxo-1,4,5,6-tetrahydro-2H-pyrano[3,4-c]isoquinolin-1-yl)-5-fluoro-N-methyl-1H-pyrrolo[2,3-c]pyridine-2-carboxamide] |  | 30
21 | CN(C(=O)c1ccc2cccn2c1)C1CNCc2[nH]c(=O)c3cc(F)c(F)cc3c21 (single isomer, unassigned) [Compound 391, N-(8,9-difluoro-6-oxo-1,2,3,4,5,6-hexahydrobenzo[c][1,7]naphthyridin-1-yl)-N-methylindolizine-6-carboxamide] | 22000 | 
22 | CN(C(=O)C1Cc2cc(F)ccc2N1)C1COCc2[nH]c(=O)c3cc(F)c(F)cc3c21 (single isomer, unassigned) [Compound 8, N-(8,9-Difluoro-6-oxo-1,4,5,6-tetrahydro-2H-pyrano[3,4-c]isoquinolin-1-yl)-5-fluoro-N-methylindoline-2-carboxamide] | 1400 | 
23 | Cc1cc(F)cc2[nH]c(C(=O)N(C)[C@@H]3CCCc4[nH]c(=O)c5cc(F)ccc5c43)cc12 [Compound 492, (R)-6-fluoro-N-(8-fluoro-6-oxo-1,2,3,4,5,6-hexahydrophenanthridin-1-y1)-N,4-dimethyl-1H-indole-2-carboxamide] |  | 30
24 | CN(C(=O)c1cc2cc(F)c(C(F)F)cc2[nH]1)C1COCc2[nH]c(=O)c3cc(F)ccc3c21 (single isomer, unassigned) [Compound 218, 6-(Difluoromethyl)-5-fluoro-N-(8-fluoro-6-oxo-1,4,5,6-tetrahydro-2H-pyrano[3,4-c]isoquinolin-1-yl)-N-methyl-1H-indole-2-carboxamide] | 30 | 
25 | CN(C(=O)C1CN(c2ccsc2)C1)[C@@H]1COCc2[nH]c(=O)c3cc(F)c(F)cc3c21 [Compound 282, (S)-N-(8,9-Difluoro-6-oxo-1,4,5,6-tetrahydro-2H-pyrano[3,4-c]isoquinolin-1-yl)-N-methyl-1-(thiophen-3-yl)azetidine-3-carboxamide] |  | 290
26 | CN(C(=O)c1ccc2cn[nH]c2c1)C1CNCc2[nH]c(=O)c3cc(F)c(F)cc3c21 (single isomer, unassigned) [Compound 496, N-(8,9-difluoro-6-oxo-1,2,3,4,5,6-hexahydrobenzo[c][1,7]naphthyridin-1-yl)-N-methyl-1H-indazole-6-carboxamide] | 4200 | 
27 | CN(C(=O)c1cc2c(C#N)cc(F)cc2[nH]1)C1CNCc2[nH]c(=O)c3cc(F)c(F)cc3c21 (single isomer, unassigned) [Compound 399, 4-Cyano-N-(8,9-difluoro-6-oxo-1,2,3,4,5,6-hexahydrobenzo[c][1,7]naphthyridin-1-yl)-6-fluoro-N-methyl-1H-indole-2-carboxamide] | 3800 | 
28 | CN(C(=O)c1ccc2[nH]ncc2c1)C1COCc2[nH]c(=O)c3cc(F)ccc3c21 (single isomer, unassigned) [Compound 449, N-(8-fluoro-6-oxo-1,4,5,6-tetrahydro-2H-pyrano[3,4-c]isoquinolin-1-yl)-N-methyl-1H-indazole-5-carboxamide] |  | 5600
29 | CN(C(=O)c1ccc2c(c1)CCC2)C1CNCc2[nH]c(=O)c3cc(F)c(F)cc3c21 (single isomer, unassigned) [Compound 472, N-(8,9-difluoro-6-oxo-1,2,3,4,5,6-hexahydrobenzo[c][1,7]naphthyridin-1-yl)-N-methyl-2,3-dihydro-1H-indene-5-carboxamide] | 40 | 
